From patent US8772348B2, “Materials and methods for pest control” (priority 2009, dated 2014)
Where two headings read alike, the source gives them in different places.

Key:
[1] = system: Susceptible Musca domestica; test: Glass jar contact bioassay, susceptible (laboratory) house flies; details: for decline in toxicity after a 24-hour holding period subsequent to an initial 2-hour exposure: 2 h transferred vs 2 h constant
Experimental: Briefly, adult house flies, Musca domestica, are obtained from strains that have been reared in the laboratory of the Entomology and Nematology Department, University of Florida. […] The positive control is exposed to serial dilutions of permethrin. The negative control is not exposed to any chemical compound. The mortality rate is measured after 2-hour, 4-hour, and 24-hour periods. Ataxic flies are considered dead.
(§1) The ability of house flies to recover from insecticidal exposure is also investigated. After a 2-hour exposure, each set of flies is transferred into a separate glass jar. The mortality rate is measured at two time intervals: first, immediately at the transfer (2 hours after the initial exposure), and second, 22 hours after the transfer (24 hours after the initial exposure).
The mortality rate is analyzed using the PROBIT model. The data is adjusted based on the mortality rate in the control set using the Abbott's transformation, and the percent mortality is further analyzed based on ANOVA measurement. The experiment is repeated at least three times. The data is discarded if the mortality rate in the control set exceeds 10%. The LC50 and LC90 values are further determined using the SAS (Cary, N.C., USA) statistical software. For each chemical compound, at least 1280 flies are examined.

[2] = system: Field-collected Musca domestica
Experimental: Briefly, one Musca domestica strain is collected from the University of Florida dairy unit in Alachua County, Florida, U.S.A. (“the Alachua strain”). The other Musca domestica strain is collected from a dairy farm in Gilchrist County, Florida, U.S.A. (“the Gilchrist strain”). Both strains are colonized adults, and are subsequently reared at 27° C. in the laboratory of the Entomology and Nematology Department, University of Florida.
The positive control is exposed to serial dilutions of permethrin. The negative control is not exposed to any chemical compound. 1 mL of insecticide was dissolved in acetone (concentrations between 0.5 and 20 mg mL^−1) in a 60 mL glass jar having a 67.86 cm^2 inside surface area (Wheaton, Millville, N.J.). Jars were allowed to dry for 1 h prior to fly introduction. Flies were held in jars for 2, 4 and 24 h, and fly mortality rate was scored at that time. Sugar water (10%) was provided in all assays, unless stated otherwise. The mortality rate is measured after a 2-hour, 4-hour, and 24-hour period. Ataxic flies are considered dead. The mortality rate and the LC values are determined using the same procedures as is illustrated in Example 2.

[3] = system: Aedes aegypti; details: for LC50: On camouflage military fabric
Experimental: The mortality rate is measured after a 2-hour, 4-hour and 24-hour exposure period. Ataxic mosquitoes are considered dead.
as §1, with “Ae. aegypti” for “house flies”, “Ae. aegypti” for “flies”, “separate” for “separate glass”
The mortality rate and the LC values are determined using the same procedures as is illustrated in Example 2.

[4] = system: Stomoxys calcitrans
Experimental: (§2) Briefly, each fly strain is divided into eight sets: three sets as the experiment, four sets as the positive control, and one set as the negative control. Flies are assayed on unpainted plywood panel boards that have been previously exposed to natural summer weather conditions for at least 10 days. […] The positive control set is treated with permethrin, geranyl acetone, rosalva or citronellol. The negative control set is treated with water. The formulation is applied at a uniform rate of 7.5 ml per 225 cm^2, sufficient to cover the entire panel without dripping. Subsequently, the treated panel boards are dried for about an hour.
(§3) In each set, 20 adult flies are placed onto the panel boards. Flies are secured with wooden embroidery hoops, covered with a coarse mesh screen cloth previously sprayed with the respective formulation. After 4 hours, flies are transferred into a clean jar. The mortality rate is measured 24 hours after the transfer, and is determined using the same procedures as are illustrated in Example 2.
(§4) Plywood panels (225 cm^2) were treated with chemicals at a rate of 1.67 mgcm^−2. Panels were treated on day 0 and held until exposure on post-treatment day. Mosquitoes were exposed to chemicals for 2 h, and mortality rate was assessed 24 h after initial exposure. Control contained formulation ingredients without semiochemicals.

[5] = system: Field-collected Musca domestica; details: for % mortality: formulation on plywood panels, 3.33 mg/cm^2 (footnote 1.67)
Experimental: as §2, with “one Musca domestica strain and one other Musca domestica strain are obtained as is illustrated in Example 3. Each” for “each”, “seven” for “eight”, “three” for “four”, “The” for “The positive control set is treated with permethrin, geranyl acetone, rosalva or citronellol. The negative control set is treated with water. The”
as §3, with “onto” for “onto the”
as §4, with “of 1.67 mg cm^−2. Panels were” for “of 1.67 mgcm^−2. Panels were”, “0 and was held until” for “0 and held until”

[6] = system: honey bees, Apis mellifera; test: Olfactory response assay in MEDUSA olfactometer, honey bee behaviors; format: in vivo; details: 0.25 mg semiochemical on perfumery strips; F7.72=0.705, p=0.67; data not shown
[7] = 2 h constant exposure, glass jar
[8] = 2 h exposure, transferred to clean jars, mortality 24 h after initial exposure
[9] = 4 h constant exposure, glass jar
[10] = Alachua strain, 2 h constant exposure
[11] = Alachua strain, 4 h constant exposure
[12] = Alachua strain, 24 h constant exposure
[13] = Gilchrist strain, 2 h constant exposure
[14] = Gilchrist strain, 4 h constant exposure
[15] = Gilchrist strain, 24 h constant exposure

| SMILES | LC90 [1, 7] [μg cm^−2] | LC90 [1, 8] [μg cm^−2] | decline in toxicity after a 24-hour holding period subsequent to an initial 2-hour exposure [1] | LC90 [1, 9] [μg cm^−2] | LC90 [2, 10] [μg cm^−2] | LC90 [2, 11] [μg cm^−2] | LC90 [2, 12] [μg cm^−2] | LC90 [2, 13] [μg cm^−2] | LC90 [2, 14] [μg cm^−2] | LC90 [2, 15] [μg cm^−2] | attraction or repellence of honey bees (contact seconds per hour) [6] | also measured |
| --- | --- | --- | --- | --- | --- | --- | --- | --- | --- | --- | --- | --- |
| C/C=C/C(=O)C1=C(C)CCCC1(C)C [Beta damascone, beta damascone] | 78.46 | 74.63 | no decline in toxicity | 53.59 | 136.39 | 124.69 | 47.00 | 126.00 | 70.59 | 56.21 | do not attract or repel honey bees | mortality rate ([1]; in vivo): ~100%; mortality rate ([3]; in vivo): ~100%; mortality rate ([4]; in vivo): 99-100%; mortality rate ([5]; in vivo): 95.0-100.0% |
| CC1(C)CCCC2=C1CC(C=O)CC2 (stereo not shown) [Cyclemone A, 2-naphthaldehyde, 1,2,3,4,5,6,7,8-octahydro-8,8-dimethyl] | 69.90 | 68.95 | no decline in toxicity | 71.44 | 74.41 | 69.96 | 51.09 | 72.60 | 79.28 | 51.58 | do not attract or repel honey bees | LC50 [1, 7]: 48.24 μg cm^−2; LC50 [1, 8]: 47.29 μg cm^−2; LC50 [1, 9]: 44.52 μg cm^−2; mortality rate ([1]; after 24-hour exposure): ~100%; LC50 [2, 10]: 54.46 μg cm^−2; LC50 [2, 11]: 52.60 μg cm^−2; LC50 [2, 12]: 32.29 μg cm^−2; LC50 [2, 13]: 54.11 μg cm^−2; LC50 [2, 14]: 46.52 μg cm^−2; LC50 [2, 15]: 32.32 μg cm^−2; LC50 ([3]; 2 h constant exposure): 26.03 μg cm^−2; LC50 ([3]; 2 h exposure then transferred, mortality 24 h after initial exposure): 41.13 μg cm^−2; LC50 ([3]; 4 h constant exposure): 17.23 μg cm^−2; mortality rate ([3]; camouflage military fabric, after a 24-hour exposure): ~100%; % mortality ([4]; S. calcitrans, formulation on plywood panels at 1.67 mg cm^−2, mortality 24 h after): 100.00a %; % mortality ([5]; Alachua strain): 100.00a %; % mortality ([5]; Gilchrist strain): 95.00a % |
